These results are taken from patent US20110123617A1, “CLIOQUINOL FOR THE TREATMENT OF HEMATOLOGICAL MALIGNANCIES” (priority 2007, published 2011).

Entries after “also recorded” stand apart in the source; their conditions may differ.

One test has as its system MY5 cells. The experiment in a line: Apoptosis by Annexin V and PI staining and flow cytometry. It counts as cell-based. The method, then: (TM) (20 μM). Apoptosis was measured by Annexin V and PI staining and flow cytometry. Cell viability was assessed with the CellTiter96® Aqueous Non-Radioactive Assay kit according to manufactures' instructions (Promega). Apoptosis was measured by flow cytometry to detect cell surface Annexin V expression and propidium iodide (PI) uptake (Biovision, Mountain View, Calif., USA) as previously described (20)
(In flow cytometry, cells or beads pass a laser one at a time.)

A further test deals with myeloma cell lines. In words: Cell viability (MTS assay), myeloma cell lines. It counts as cell-based. The conditions noted are these: 12/14 myeloma cell lines, forty-eight hours; read-out: IC50 (cell death). The method, then:
(§1) Cell viability of leukemia, myeloma, solid tumor and primary cells forty-eight hours after clioquinol treatment by MTS assay. Cell viability was assessed with the CellTiter96® Aqueous Non-Radioactive Assay kit according to manufactures' instructions (Promega). Apoptosis was measured by flow cytometry to detect cell surface Annexin V expression and propidium iodide (PI) uptake (Biovision, Mountain View, Calif., USA) as previously described (20) The inventors tested the effects of clioquinol on the viability of acute leukemia (n=7), myeloma (n=14), and solid tumor (n=5) cell lines as well as primary AML samples (n=6) and primary normal hematopoietic cells (n=3). Forty-eight hours after incubation, clioquinol induced cell death in 6/7 AML, 12/14 myeloma, 0/5 solid tumor, […] and 0/3 normal hematopoietic cells with an IC50 <20 μM (FIG. 5). Of note, after oral administration of clioquinol, trough serum concentrations of 20 μM can be achieved in patients (32).

Test [1] relates to proteasome in primary AML cells. The experiment in a line: Proteasome activity in primary AML cells. It counts as cell-based, human. The procedure: (§2) Proteasome activity of primary acute myeloid leukemia (AML) blasts or normal peripheral blood stem cells (PBSC) after twenty hours of treatment with clioquinol (CQ), or an equimolar concentration of […] and CuCl2 (Cu). After treatment, the preferential chymotrypsin-like substrate Suc-LLVY-AMC was added and the rate of free AMC was measured over time with a florescent spectrophotometric plate reader (excitation=380 nm, emission=460 nm). Cellular proteins were extracted from cells with lysis buffer (50 mM HEPES pH 7.5, 150 mM NaCl, 2 mM ATP, and 1% Triton X-100). The chymotrypsin-like activity of the proteasome was measured by incubating equal amounts of protein with the preferential chymotrypsin-like substrate Suc-LLVY-AMC in assay buffer (50 mM Tris-HCl, pH 7.5, 150 mM NaCl) for two hours. After incubation, […] and the rate of free AMC was measured over time with a florescent spectrophotometric plate reader (excitation=380 nm, emission=460 nm). The inventors examined the effect of clioquinol and copper on primary AML cells and normal hematopoietic cells. Primary AML were obtained from the peripheral blood of patients with AML. Normal hematopoietic stem cells (PBSC) were obtained from the peripheral blood of volunteers donating stem cells for allotransplant. […] After incubation, cell lysates were prepared and the enzymatic activity of the proteasome measured as above.

Test [2] relates to normal hematopoietic cells. The experiment in a line: Cell viability (MTS assay), primary normal hematopoietic cells. It counts as cell-based, human. The conditions noted are these: normal hematopoietic cells supplemented with copper. The procedure:
as §1
(Tetrazolium assays rely on reduction of a dye to a coloured formazan, in cell work by metabolically active cells.)

In test [3] the test system is acute leukemia cell lines. The experiment in a line: Cell viability (MTS assay), acute leukemia cell lines. It counts as cell-based. The conditions noted are these: 6/7 AML cell lines, forty-eight hours; read-out: IC50 (cell death). The procedure: as §1
For the next test, the system named is p27. In words: Immunoblotting of p27. It counts as cell-based. The settings on record: low micromolar concentrations. An excerpt:
(§3) A) Effect of increasing concentrations of clioquinol on LP1 and MY5 multiple myeloma cells at twenty hours after clioquinol treatment; determined by SDS-PAGE immunoblotting. B) Effect of increasing concentrations of clioquinol on the G0/G1 ratio in AML3, U937, LP1 and MY5 cells at twenty hours after clioquinol treatment; determined by PI staining and flow cytometry. To prepare cytosolic extracts, NIH3T3 cells and myeloma cells were washed with phosphate-buffered saline (PBS, pH 7.4) and suspending in lysis buffer [10 mM Tris (pH 7.4), 150 mM NaCl, 0.1% Triton X-100, 0.5% sodium deoxycholate, and 5 mM EDTA] containing protease inhibitors (Complete tablets, Roche, Indianapolis, Ind.). Protein concentrations were determined by the Bradford assay. Immunoblot assays were performed by subjecting equal amounts of protein to SDS-PAGE gels followed by transfer to Nitrocellulose membranes. Membranes were probed with polyclonal rabbit anti-human cyclin D2 (0.5 μg/ml, both from Santa Cruz Biotech, Santa Cruz, Calif.), or monoclonal mouse-anti human p21 (1:200 v/v, Santa Cruz Biotech), monoclonal mouse-anti human p27 (1:2,500 v/v BD Transduction Laboratories), polyclonal mouse-anti human ubiquitin (1:2,000 v/v Calbiochem) and monoclonal mouse-anti-β-actin (1:10,000 v/v) (Sigma, St. Lois, Mo.). […] Detection was performed by the Enhanced Chemical Luminescence (ECL) method (Pierce, Rockford, Ill.).

The test system of a further test is cyclin D2. In words: Immunoblotting of cyclin D2 in myeloma and leukemia cells. It counts as cell-based. The conditions noted are these: low micromolar concentrations.
Source text: as §3

Test [4] deals with AML3, U937, LP1 and MY5 cells. The experiment in a line: Cell cycle analysis (PI staining and flow cytometry). It counts as cell-based. The conditions noted are these: low micromolar concentrations. The method, then:
A) Effect of increasing concentrations of clioquinol on LP1 and MY5 multiple myeloma cells at twenty hours after clioquinol treatment; determined by SDS-PAGE immunoblotting. B) Effect of increasing concentrations of clioquinol on the G0/G1 ratio in AML3, U937, LP1 and MY5 cells at twenty hours after clioquinol treatment; determined by PI staining and flow cytometry. Cells were harvested, washed with cold PBS, suspended in 70% cold ethanol and incubated overnight at −20° C. Cells were then treated with 100 ng/ml of DNase-free RNase (InvitroGen) at 37° C. for 30 min, washed with cold PBS, and resuspended in PBS with 50 μg/ml of propidium iodine. DNA content was analyzed by flow cytometry (FACSCalibur, Becton Dickinson, Fla., USA). The percentage of cells in each phase of the cell cycle was calculated with ModiFit software (Becton Dickinson).

In the next test the test system is K562 leukemia cells. In words: K562 leukemia xenograft. It counts as in vivo, mouse. The conditions noted are these: 100 mg/kg for 5 of 7 days, subcutaneous K562. An excerpt: Similar results were obtained with a K562 leukemia xenograft.
The subject of test [5] is proteasome in normal hematopoietic cells. In words: Proteasome activity in normal hematopoietic cells (PBSC). It counts as cell-based, human. The procedure:
as §2

Regarding `Oc1c(I)cc(Cl)c2cccnc12` [clioquinol, 5-chloro-7-iodo-8-hydroxyquinoline], the clioquinol-induced cell death result in the test with MY5 cells (copper supplemented in the medium (CuCl2 20 μM)) was “enhanced the toxicity of clioquinol”; in the test on MY5 cells (with copper chelator tetrathiomoylbdate (20 μM)), “abrogated clioquinol-induced cell death”. Moreover, the “viability of MY5 cells” value with MY5 cells (twenty-four hours) is on record as “reduces the viability of MY5 cells”. For the same compound, the concentration for half-maximal inhibition (IC50) (in the test with myeloma cell lines; in [3]) was less than 20 µM in each case. The results for the “enzymatic activity of the proteasome” value in [1] and in test [5] were “inhibited the proteasome” and “no effect; also recorded: no proteasomal inhibition was detected”, respectively. Besides, the potency of clioquinol result in [2] is on record as “increased the potency of clioquinol”. Besides, in the test on p27, the “expression of p27” value was “increased expression”. In addition, in the test with cyclin D2, the “levels of cyclin D2” value is on record as “reduced levels of cyclin D2”. In addition, in [4], the cell cycle arrest result is recorded as “arrested cells in the G1 phase”. Also, the “tumor growth (tumor volume)” value in the test on K562 leukemia cells was “delayed tumor growth”.
